Measurements published in ChEMBL document CHEMBL1146326, “13C bis-labeled pyrroles: a tool for the identification of the rat metabolism of 3-methyl pyrrole-2,4-dicarboxylic acid 2-propyl ester 4-(1,2,2-trimethyl-propyl) ester” (Bioorg Med Chem Lett, 2007).

Each molecule was assayed against Metabotropic glutamate receptor 1 (Homo sapiens, UniProt Q13255) (assay: Inhibition of recombinant mGluR1a receptor expressed in CHO cells).
Type: cell-based

Chain of Metabotropic glutamate receptor 1 (Q13255 whole entry): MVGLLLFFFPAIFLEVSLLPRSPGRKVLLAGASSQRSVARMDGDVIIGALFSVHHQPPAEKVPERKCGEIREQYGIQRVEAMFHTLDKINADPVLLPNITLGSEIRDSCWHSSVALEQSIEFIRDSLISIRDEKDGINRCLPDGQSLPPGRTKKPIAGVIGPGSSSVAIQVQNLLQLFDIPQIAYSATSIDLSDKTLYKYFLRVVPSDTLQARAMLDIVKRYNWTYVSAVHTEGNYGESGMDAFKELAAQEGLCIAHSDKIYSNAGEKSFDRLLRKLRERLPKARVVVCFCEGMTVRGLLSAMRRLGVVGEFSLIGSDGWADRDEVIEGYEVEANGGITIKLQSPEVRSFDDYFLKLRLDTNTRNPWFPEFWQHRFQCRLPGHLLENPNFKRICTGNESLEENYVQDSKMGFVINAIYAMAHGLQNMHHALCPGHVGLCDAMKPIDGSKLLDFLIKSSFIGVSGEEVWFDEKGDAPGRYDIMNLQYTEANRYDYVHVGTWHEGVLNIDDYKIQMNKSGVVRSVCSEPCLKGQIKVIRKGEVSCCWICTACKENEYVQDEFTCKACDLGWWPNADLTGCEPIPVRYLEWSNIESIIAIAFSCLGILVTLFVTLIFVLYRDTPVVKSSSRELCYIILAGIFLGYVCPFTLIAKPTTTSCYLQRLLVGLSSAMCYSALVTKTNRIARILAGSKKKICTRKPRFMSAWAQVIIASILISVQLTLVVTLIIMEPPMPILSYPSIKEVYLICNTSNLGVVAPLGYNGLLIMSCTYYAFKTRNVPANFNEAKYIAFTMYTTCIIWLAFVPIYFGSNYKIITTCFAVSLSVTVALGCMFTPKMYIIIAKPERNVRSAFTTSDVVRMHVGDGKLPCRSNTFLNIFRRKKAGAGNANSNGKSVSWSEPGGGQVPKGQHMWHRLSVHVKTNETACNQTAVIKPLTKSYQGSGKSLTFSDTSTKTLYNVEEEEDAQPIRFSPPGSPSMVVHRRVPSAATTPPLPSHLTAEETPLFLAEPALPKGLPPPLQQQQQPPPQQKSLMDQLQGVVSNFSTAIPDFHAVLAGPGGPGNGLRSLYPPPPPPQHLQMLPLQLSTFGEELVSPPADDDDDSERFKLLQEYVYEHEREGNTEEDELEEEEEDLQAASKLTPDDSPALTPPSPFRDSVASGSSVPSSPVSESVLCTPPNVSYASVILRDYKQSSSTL

How did the IC50 turn out when `COCCNC(=O)c1[nH]cc(C(=O)O[C@@H](C)C(C)(C)C)c1C` was run?
Its IC50 is 31.6 nM.

How did the IC50 turn out when `CC(=O)NCCCCNC(=O)c1[nH]cc(C(=O)OC2CC3CCC2C3)c1C` (centres undefined) was run?
Its IC50 is 200 nM.

`COCCNC(=O)c1[nH]cc(C(=O)OC2CC3CCC2C3)c1C` (centres undefined) was tested. Which IC50 did it give?
The IC50 was 158 nM.

Which IC50 does the source give for `CC(=O)NCCCCNC(=O)c1[nH]c(C)c(C(=O)OC2CC3CCC2C3)c1C` (centres undefined) here?
Its IC50 is 1000 nM.

How did the IC50 turn out when `CCCOC(=O)c1[nH]cc(C(=O)O[C@@H](C)C(C)(C)C)c1C` was run?
Its IC50 is 3.98 nM.

How did the IC50 turn out when `COCCNC(=O)c1[nH]cc(C(=O)NC2CC3CCC2C3)c1C` (centres undefined) was run?
The IC50 was over 10000 nM.

How did the IC50 turn out when `CCOC(=O)c1[nH]cc(C(=O)OC2CC3CCC2C3)c1C` (centres undefined) was run?
The IC50 was 20 nM.

How did the IC50 turn out when `CCOC(=O)c1[nH]c(C)c(C(=O)OC2CC3CCC2C3)c1C` (centres undefined) was run?
The IC50 was 100 nM.

With `COCCNC(=O)c1[nH]c(C)c(C(=O)OC2CC3CCC2C3)c1C` (centres undefined) as the molecule, how does the IC50 read?
The IC50 was 316 nM.
